Among the data in patent US20250302815A1, “PROTEIN TYROSINE PHOSPHATASE TARGETING LIGANDS” (CALICO LIFE SCIENCES LLC, priority 2021, published 2025) are DC50 values, retold here.

In general, DC50 refers to the concentration giving 50% degradation.

The target of test [1] is T1, PTPN2 (HiBIT-PTPN2 in 293T.109 cells) (Homo sapiens, UniProt P17706).
T1 construct: expressed in transfected cells; host or cells: 293T.109 (293T WT from ATCC)
T1 sequence (P17706 1-415): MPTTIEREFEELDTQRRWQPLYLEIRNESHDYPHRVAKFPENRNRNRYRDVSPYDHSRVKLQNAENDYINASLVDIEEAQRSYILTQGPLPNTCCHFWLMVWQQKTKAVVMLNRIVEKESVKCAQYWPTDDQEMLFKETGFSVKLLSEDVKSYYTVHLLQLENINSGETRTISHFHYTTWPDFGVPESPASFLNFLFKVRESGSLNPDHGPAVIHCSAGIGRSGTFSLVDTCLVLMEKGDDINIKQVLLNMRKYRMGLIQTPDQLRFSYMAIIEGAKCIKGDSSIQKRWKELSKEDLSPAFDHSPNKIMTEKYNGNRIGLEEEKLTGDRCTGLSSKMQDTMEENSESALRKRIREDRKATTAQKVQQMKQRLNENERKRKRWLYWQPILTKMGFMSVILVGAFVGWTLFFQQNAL
Description: HiBiT Degradation 293T.109 PTPN2 (Nano-Glo HiBiT Lytic Assay). The test is classed as cell-based. The following applies: 24.0 hours. A digest of the protocol: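 Degradation read-out: lytic HiBiT luminescence after 24 h treatment (37 °C, 5% CO2) of 5000 293T cells per well expressing HiBiT-fused PTPN2 from an N-terminal tag. Dosing was 11 points, half-log steps down from 10 μM, in duplicate; vehicle-treated and no-reagent wells served as controls.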

A further test concerns the target T2, PTPN2 (B16F10.4 cells) (Mus musculus, UniProt Q06180).
T2 construct: HiBiT; host or cells: B16F10.4
T2 sequence (Q06180 1-406): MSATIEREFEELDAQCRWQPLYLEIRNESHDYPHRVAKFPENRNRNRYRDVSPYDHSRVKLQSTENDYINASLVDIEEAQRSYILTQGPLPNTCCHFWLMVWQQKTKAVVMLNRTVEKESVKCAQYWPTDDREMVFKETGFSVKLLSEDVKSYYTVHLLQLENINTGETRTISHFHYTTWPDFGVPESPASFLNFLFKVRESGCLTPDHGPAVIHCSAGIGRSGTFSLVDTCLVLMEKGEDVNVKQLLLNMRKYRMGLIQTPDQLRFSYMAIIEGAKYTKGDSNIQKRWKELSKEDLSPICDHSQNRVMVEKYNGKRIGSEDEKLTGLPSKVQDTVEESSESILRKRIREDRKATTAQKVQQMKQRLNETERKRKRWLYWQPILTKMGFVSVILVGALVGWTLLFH
Nature of the test: HiBiT Degradation B16F10.4 PTPN2. Format: cell-based. The following applies: 24.0 hours.

As for `Cn1c(=O)n(C2CCC(=O)NC2=O)c2ccc(N3CCC(OC(=O)Nc4cccc(CS(=O)(=O)N5CC[C@H](Nc6cccc(-c7sc(C(=O)O)c(OCC(=O)O)c7Cl)c6)CC5(C)C)c4)CC3)cc21` (stereo partly drawn) [Example 117, 3-(carboxymethoxy)-4-chloro-5-[3-[[(4S)-1-[[3-[[1-[1-(2,6-dioxo-3-piperidyl)-3-methyl-2-oxo-benzimidazol-5-yl]-4-piperidyl]oxycarbonylamino]phenyl]methylsulfonyl]-2,2-dimethyl-4-piperidyl]amino]phenyl]thiophene-2-carboxylic acid], the DC50 (in test [1]; on PTPN2 (B16F10.4 cells)) was 50 to 200 nM each time.

On to `CC(C)n1c(=O)n([C@@H]2CCC(=O)NC2=O)c2ccc(C3CCN(C(=O)Nc4cccc(CS(=O)(=O)N5CC[C@H](Nc6cccc(-c7sc(C(=O)O)c(OCC(=O)O)c7Cl)c6)CC5(C)C)c4)CC3)cc21` (single isomer, unassigned) [Example 87a], for which the 50% degradation concentration (DC50) (in test [1]; on PTPN2 (B16F10.4 cells)) was 50 to 200 nM each time.

With `CC1(C)C[C@@H](Nc2cccc(-c3sc(C(=O)O)c(OCC(=O)O)c3Cl)c2)CCN1S(=O)(=O)Cc1cccc(NC(=O)[C@H]2[C@@H]3CN(C(=O)CNc4cccc5c4CN(C4CCC(=O)NC4=O)C5=O)C[C@@H]32)c1` (stereo partly drawn) [Example 98], the DC50 was in the range of 50 to 200 nM in test [1] and 200 to 1000 nM at PTPN2 (B16F10.4 cells).

For the molecule `CC1(C)CC(Nc2cccc(-c3sc(C(=O)O)c(OCC(=O)O)c3Cl)c2F)CCN1S(=O)(=O)Cc1ccc(F)c(NC(=O)C2CN(C(=O)CNc3cccc4c3CN(C3CCC(=O)NC3=O)C4=O)C2)c1` (stereo not drawn) [Example 146, 3-(carboxymethoxy)-4-chloro-5-[3-[[1-[[3-[[1-[2-[[2-(2,6-dioxo-3-piperidyl)-1-oxo-isoindolin-4-yl]amino]acetyl]azetidine-3-carbonyl]amino]-4-fluoro-phenyl]methylsulfonyl]-2,2-dimethyl-4-piperidyl]amino]-2-fluoro-phenyl]thiophene-2-carboxylic acid], the results for the DC50 (in test [1]; on PTPN2 (B16F10.4 cells)) were less than 50 nM and 200 to 1000 nM, respectively.

Consider `CC1(C)C[C@@H](Nc2cccc(-c3sc(C(=O)O)c(OCC(=O)O)c3Cl)c2)CCN1S(=O)(=O)Cc1cccc(NC(=O)N2CCC(c3ccc4c(c3)n(C(C)(C)C)c(=O)n4C3CCC(=O)NC3=O)CC2)c1` (stereo partly drawn) [Example 186, 5-(3-(((4S)-1-((3-(4-(3-(tert-butyl)-1-(2,6-dioxopiperidin-3-yl)-2-oxo-2,3-dihydro-1H-benzo[d]imidazol-5-yl)piperidine-1-carboxamido)benzyl)sulfonyl)-2,2-dimethylpiperidin-4-yl)amino)phenyl)-3-(carboxymethoxy)-4-chlorothiophene-2-carboxylic acid], for which the 50% degradation concentration (DC50) (in test [1]; on PTPN2 (B16F10.4 cells)) was 50 to 200 nM each time.

In the case of `Cn1c(=O)n(C2CCC(=O)NC2=O)c2ccc(C3CCN(C(=O)Nc4cccc(CS(=O)(=O)N5CC[C@@H](Oc6cccc(-c7sc(C(=O)O)c(OCC(=O)O)c7Cl)c6)CC5(C)C)c4)CC3)cc21` (stereo partly drawn) [Example 226, 3-(carboxymethoxy)-4-chloro-5-(3-(((4R)-1-((3-(4-(1-(2,6-dioxopiperidin-3-yl)-3-methyl-2-oxo-2,3-dihydro-1H-benzo[d]imidazol-5-yl)piperidine-1-carboxamido)benzyl)sulfonyl)-2,2-dimethylpiperidin-4-yl)oxy)phenyl)thiophene-2-carboxylic acid], the DC50 in test [1] lay within 200 to 1000 nM; at PTPN2 (B16F10.4 cells), 50 to 200 nM.

`O=C(O)COc1c(C(=O)O)sc(-c2cccc(NC3CCN(S(=O)(=O)Cc4cccc(NC(=O)CCN5CCC(Nc6cccc7c6CN(C6CCC(=O)NC6=O)C7=O)CC5)c4)CC3)c2)c1Cl` (stereo not drawn) [Example 50, 3-(carboxymethoxy)-4-chloro-5-[3-[[1-[[3-[3-[4-[[2-(2,6-dioxo-3-piperidyl)-1-oxo-isoindolin-4-yl]amino]-1-piperidyl]propanoylamino]phenyl]methylsulfonyl]-4-piperidyl]amino]phenyl]thiophene-2-carboxylic acid]: the half-maximal degradation concentration (DC50) in test [1] is less than 50 nM; at PTPN2 (B16F10.4 cells), not below 1000 nM.

For the molecule `Cn1nc(C2CCC(=O)NC2=O)c2ccc(C3CCN(C(=O)Nc4cccc(CS(=O)(=O)N5CC[C@@H](Nc6cccc(-c7sc(C(=O)O)c(OCC(=O)O)c7Cl)c6)CC5(C)C)c4)CC3(F)F)cc21` (stereo partly drawn) [Example 185, 3-(carboxymethoxy)-4-chloro-5-(3-(((4R)-1-((3-(4-(3-(2,6-dioxopiperidin-3-yl)-1-methyl-1H-indazol-6-yl)-3,3-difluoropiperidine-1-carboxamido)benzyl)sulfonyl)-2,2-dimethylpiperidin-4-yl)amino)phenyl)thiophene-2-carboxylic acid], the DC50 in test [1] was 200 to 1000 nM; on PTPN2 (B16F10.4 cells), less than 50 nM.

On to `Cn1c(=O)n(C2CCC(=O)NC2=O)c2ccc(C3CCN(C(=O)Nc4cc(CS(=O)(=O)N5CCC(Nc6cccc(-c7sc(C(=O)O)c(OCC(=O)O)c7Cl)c6)CC5(C)C)ccc4F)CC3)cc21` (stereo not drawn) [Example 114, 3-(carboxymethoxy)-4-chloro-5-[3-[[1-[[3-[[4-[1-(2,6-dioxo-3-piperidyl)-3-methyl-2-oxo-benzimidazol-5-yl]piperidine-1-carbonyl]amino]-4-fluoro-phenyl]methylsulfonyl]-2,2-dimethyl-4-piperidyl]amino]phenyl]thiophene-2-carboxylic acid], for which the figures for the DC50 (in test [1]; at PTPN2 (B16F10.4 cells)) were 50 to 200 nM and less than 50 nM, respectively.

With `CC1(C)C[C@@H](Nc2cccc(-c3sc(C(=O)O)c(OCC(=O)O)c3Cl)c2)CCN1S(=O)(=O)Cc1cccc(N2CCN(C3CCN(c4ccc5c6c(cccc46)C(=O)N5C4CCC(=O)NC4=O)CC3)C2=O)c1` (stereo partly drawn) [Example 189, 3-(carboxymethoxy)-4-chloro-5-(3-(((4S)-1-((3-(3-(1-(1-(2,6-dioxopiperidin-3-yl)-2-oxo-1,2-dihydrobenzo[cd]indol-6-yl)piperidin-4-yl)-2-oxoimidazolidin-1-yl)benzyl)sulfonyl)-2,2-dimethylpiperidin-4-yl)amino)phenyl)thiophene-2-carboxylic acid], the DC50 (in test [1]; on PTPN2 (B16F10.4 cells)) was less than 50 nM in each case.

For the molecule `Cn1c(=O)n(C2CCC(=O)NC2=O)c2ccc(NC3CN(C(=O)Nc4cccc(CS(=O)(=O)N5CC[C@H](Nc6cccc(-c7sc(C(=O)O)c(OCC(=O)O)c7Cl)c6)CC5(C)C)c4)C3)cc21` (stereo partly drawn) [Example 79], the DC50 in test [1] is less than 50 nM; at PTPN2 (B16F10.4 cells), 50 to 200 nM.

Turning to `Cn1c(=O)n(C2CCC(=O)NC2=O)c2ccc(C3CCN(C(=O)Nc4cc(CS(=O)(=O)N5CC[C@@H](Nc6cccc(-c7sc(C(=O)O)c(OCC(=O)O)c7Cl)c6)CC5(C)C)ccc4F)CC3)cc21` (stereo partly drawn) [Example 120], the 50% degradation concentration (DC50) in test [1] is 50 to 200 nM; at PTPN2 (B16F10.4 cells), less than 50 nM.

For `Cn1c(=O)n(C2CCC(=O)NC2=O)c2ccc(C3CCN(C(=O)Nc4cccc(CS(=O)(=O)N5CC[C@H](Nc6cccc(-c7sc(C(=O)O)c(OCC(=O)O)c7Cl)c6)CC5(C)C)c4)CC3)cc21` (stereo partly drawn) [Example 60, 3-(carboxymethoxy)-4-chloro-5-(3-(((4S)-1-((3-(4-(1-(2,6-dioxopiperidin-3-yl)-3-methyl-2-oxo-2,3-dihydro-1H-benzo[d]imidazol-5-yl)piperidine-1-carboxamido)benzyl)sulfonyl)-2,2-dimethylpiperidin-4-yl)amino)phenyl)thiophene-2-carboxylic acid], the DC50 was 50 to 200 nM in test [1] and less than 50 nM at PTPN2 (B16F10.4 cells).

Take `CC1(C)C[C@@H](Nc2cccc(-c3sc(C(=O)O)c(OCC(=O)O)c3Cl)c2)CCN1S(=O)(=O)Cc1cccc(NCCNCCCc2ccc3c4c(cccc24)C(=O)N3C2CCC(=O)NC2=O)c1` (stereo partly drawn) [Example 201]: the 50% degradation concentration (DC50) (in test [1]; at PTPN2 (B16F10.4 cells)) was 50 to 200 nM each time.

Take `Cn1c(=O)n(C2CCC(=O)NC2=O)c2ccc(C3CCN(C(=O)Nc4cccc(CS(=O)(=O)N5CC[C@H](Oc6cccc(-c7sc(C(=O)O)c(OCC(=O)O)c7Cl)c6)CC5(C)C)c4)CC3)cc21` (stereo partly drawn) [Example 225, 3-(carboxymethoxy)-4-chloro-5-(3-(((4S)-1-((3-(4-(1-(2,6-dioxopiperidin-3-yl)-3-methyl-2-oxo-2,3-dihydro-1H-benzo[d]imidazol-5-yl)piperidine-1-carboxamido)benzyl)sulfonyl)-2,2-dimethylpiperidin-4-yl)oxy)phenyl)thiophene-2-carboxylic acid]: the 50% degradation concentration (DC50) lay in the range of 200 to 1000 nM in test [1] and 50 to 200 nM on PTPN2 (B16F10.4 cells).
